Laboratory results from US11053212B2, “Benzimidazole derivatives as bromodomain inhibitors” (GLAXOSMITHKLINE INTELLECTUAL PROPERTY DEVELOPMENT LIMITED, priority 2015, dated 2021).
Structures can show the parent of a compound that is named as a salt. Where two headings read alike, the source gives them in different places.

Assays:
[1] = test system: LPS induced MCP-1 production; assay: LPS induced MCP-1 production from human whole blood; format: cell-based; settings: LPS 200 ng/mL, 18-24 hours; for IC50: read-out: mean pIC50, LPS induced MCP-1 production (converted)
From the text: Measurement of LPS Induced MCP-1 Production from Human Whole Blood
Activation of monocytic cells by agonists of toll-like receptors such as bacterial lipopolysaccharide (LPS) results in production of key inflammatory mediators including MCP-1. Such pathways are widely considered to be central to the pathophysiology of a range of auto-immune and inflammatory disorders. Blood is collected in a tube containing Sodium heparin (Leo Pharmaceuticals) (10 units of heparin/mL of blood). 96-well compound plates containing 1 μL test sample in 100% DMSO were prepared (two replicates on account of donor variability). 130 μL of whole blood was dispensed into each well of the 96-well compound plates and incubated for 30 min at 37° C., 5% CO2. 10 μL of lipopolysaccharide (from Salmonella typhosa; L6386) made up in PBS (200 ng/mL final assay concentration) was added to each well of the compound plates. The plates were then placed in the humidified primary cell incubator for 18-24 hours at 37° C., 5% CO2. 140 μL of PBS was added to all wells of the compound plates containing blood. The plates were then sealed and centrifuged for 10 mins at 2500 rpm. 25 μL of cell supernatant was placed in a 96-well MSD plate pre-coated with human MCP-1 capture antibody. The plates were sealed and placed on a shaker at 600 rpm for 1 hour (r.t). 25 μL of Anti-human MCP-1 antibody labelled with MSD SULFO-TAG™ reagent is added to each well of the MSD plate (stock 50× was diluted 1:50 with Diluent 100, final assay concentration is 1 μg/mL). The plates were then re-sealed and shaken for another hour before washing with PBS. 150 μL of 2×MSD Read Buffer T (stock 4×MSD Read Buffer T was diluted 50:50 with de-ionised water) was then added to each well and the plates read on the MSD Sector Imager 6000. Concentration response curves for each compound were generated from the data and an pIC50 value was calculated.

BRD4 BD1 = molecular target: T1, BRD4 BD1 (Homo sapiens, UniProt O60885, Y390A); assay: TR-FRET binding assay, BRD4 BD1 (mutant protein); settings: 10 nM mutated bromodomain protein, Alexa Fluor647 ligand at Kd, read-out: mean pIC50 in the BRD4 BD1 assay (converted)
T1 construct: BRD4 (1-477) (Y97A) and (Y390A); made in house; host or cells: E. coli (pET15b vector)
Experimental: (§1) Biological Data Time Resolved Fluorescence Resonance Energy Transfer (TR-FRET) Assay
(§2) Binding was assessed using a time resolved fluorescent resonance energy transfer binding assay. This utilises a 6 His purification tag at the N-terminal of the proteins as an epitope for an anti-6 His antibody labeled with Europium chelate (PerkinElmer AD0111) allowing binding of the Europium to the proteins which acts as the donor fluorophore.
(§3) In the absence of a competing compound, excitation of the Europium causes the donor to emit at λ618 nm which excites the Alexa labelled bromodomain binding compound leading to an increased energy transfer that is measurable at λ647 nM. In the presence of a sufficient concentration of a compound that can bind these proteins, the interaction is disrupted leading to a quantifiable drop in fluorescent resonance energy transfer.
The binding of compounds of the invention to Bromodomains BRD2, BRD3, BRD4 and BRDT was assessed using mutated proteins to detect differential binding to either Binding Domain 1 (BD1) or Binding Domain 2 (BD2) on the bromodomain. […] Therefore in the final assay conditions, binding of the fluoroligand to the mutated domain cannot be detected and subsequently the assay is suitable to determine the binding of compounds to the single non-mutated bromodomain. […]
All assay components were dissolved in buffer composition of 50 mM HEPES pH7.4, 50 mM NaCl, 5% Glycerol, 1 mM DTT and 1 mM CHAPS. […] Plates were then read on the Envision plate reader, (⋅ex=317 nm, donor ⋅em=615 nm; acceptor ⋅em=665 nm; Dichroic LANCE dual). Time resolved fluorescent intensity measurements were made at both emission wavelengths and the ratio of acceptor/donor was calculated and used for data analysis. […]

BRD4 BD2 = molecular target: T2, BRD4 BD2 (Homo sapiens, UniProt O60885, Y97A); assay: TR-FRET binding assay, BRD4 BD2 (mutant protein); settings: 10 nM mutated bromodomain protein, Alexa Fluor647 ligand at Kd, read-out: mean pIC50 in the BRD4 BD2 assay (converted)
T2 construct: BRD4 (1-477) (Y97A) and (Y390A); made in house; host or cells: E. coli (pET15b vector)
Experimental: as §1, §2, §3
The binding of compounds of the invention to Bromodomains BRD2, BRD3, BRD4 and BRDT was assessed using mutated proteins to detect differential binding to either Binding Domain 1 (BD1) or Binding Domain 2 (BD2) on the bromodomain. […] Therefore in the final assay conditions, binding of the fluoroligand to the mutated domain cannot be detected and subsequently the assay is suitable to determine the binding of compounds to the single non-mutated bromodomain.
Recombinant Human Bromodomains [(BRD2 (1-473) (Y113A) and (Y386A), BRD3 (1-435) (Y73A) and (Y348A) BRD4 (1-477) (Y97A) and (Y390A) and BRDT (1-397) (Y66A) and (Y309A)] were expressed in E coli cells (in pET15b vector for BRD2/3/4 and in pET28a vector for BRDT) with a 6-His tag at the N-terminal. The His-tagged Bromodomain pellet was resuspended in 50 mM HEPES (pH7.5), 300 mM NaCl, 10 mM imidazole & 1 μl/ml protease inhibitor cocktail and extracted from the E coli cells using sonication and purified using a nickel sepharose high performance column, the proteins were washed and then eluted with a linear gradient of 0-500 mM imidazole with buffer 50 mM HEPES (pH7.5), 150 mM NaCl, 500 mM imidazole, over 20 column volumes. Final purification was completed by Superdex 200 prep grade size exclusion column. Purified protein was stored at −80° C. in 20 mM HEPES pH 7.5 and 100 mM NaCl.
All assay components were dissolved in buffer composition of 50 mM HEPES pH7.4, 50 mM NaCl, 5% Glycerol, 1 mM DTT and 1 mM CHAPS. The final concentration of bromodomain proteins were 10 nM and the Alexa Fluor647 ligand was at Kd. These components were premixed and 5 μl of this reaction mixture was added to all wells containing 50 nl of various concentrations of test compound or DMSO vehicle (0.5% DMSO final) in Greiner 384 well black low volume microtitre plates and incubated in dark for 30 minutes at rt. […] of detection mixture containing 1.5 nM final concentration anti-6His Europium chelate was added to all wells and a further dark incubation of at least 30 minutes was performed. Plates were then read on the Envision plate reader, (⋅ex=317 nm, donor ⋅em=615 nm; acceptor ⋅em=665 nm; Dichroic LANCE dual). Time resolved fluorescent intensity measurements were made at both emission wavelengths and the ratio of acceptor/donor was calculated and used for data analysis. All data was normalized to the mean of 16 high (inhibitor control—Example 11 of WO 2011/054846A1) and 16 low (DMSO) control wells on each plate. A four parameter curve fit of the following form was then applied: y=a+((b−a)/(1+(10^x/10^c)^d) Where ‘a’ is the minimum, […], ‘c’ is the pIC50 and […].

Row | SMILES | IC50 [1] [nM] | IC50 (BRD4 BD1) [nM] | IC50 (BRD4 BD2) [nM] | IC50 ([1]; Homo sapiens) [nM] | mean pIC50, LPS induced MCP-1 production [1]
1 | COCC(COC)n1c(-c2cc(C)c(=O)n(C)c2)nc2cc(CN[C@H](C(=O)O)[C@@H](C)O)ccc21 [Example 66, (2S,3R)-2-(((1-(1,3-dimethoxypropan-2-yl)-2-(1,5-dimethyl-6-oxo-1,6-dihydropyridin-3-yl)-1H-benzo[d]imidazol-5-yl)methyl)amino)-3-hydroxybutanoic acid hydrochloride] | 1000 | 200 | 1260 |  | 
2 | COCC(COC)n1c(-c2cc(C)c(=O)n(C)c2)nc2cc(CN[C@H](C(=O)OC(C)C)[C@@H](C)O)ccc21 [Example 305, (2S,3R)-Isopropyl 2-(((1-(1,3-dimethoxypropan-2-yl)-2-(1,5-dimethyl-6-oxo-1,6-dihydropyridin-3-yl)-1H-benzo[d]imidazole-5-yl)methyl)amino)-3-hydroxybutanoate] | 10 | 50.1 | 398 |  | 

The next lines start with the values.

Row | IC50 [1] [nM] | IC50 (BRD4 BD1) [nM] | IC50 (BRD4 BD2) [nM] | IC50 ([1]; Homo sapiens) [nM] | mean pIC50, LPS induced MCP-1 production [1] | SMILES
3 | 3980 | 251 | 631 |  |  | Cc1cc(-c2nc3cc(CN[C@H](C(=O)O)[C@@H](C)O)ccc3n2CC2CCOCC2)cn(C)c1=O [Example 68, (2S,3R)-2-(((2-(1,5-dimethyl-6-oxo-1,6-dihydropyridin-3-yl)-1-((tetrahydro-2H-pyran-4-yl)methyl)-1H-benzo[d]imidazol-5-yl)methyl)amino)-3-hydroxybutanoic acid hydrochloride]
4 |  |  |  | 25.1 |  | Cc1cc(-c2nc3cc(CN[C@H](C(=O)OC(C)C)[C@@H](C)O)ccc3n2CC2CCOCC2)cn(C)c1=O [Example 303, (2S,3R)-isopropyl 2-(((2-(1,5-dimethyl-6-oxo-1,6-dihydropyridin-3-yl)-1-((tetrahydro-2H-pyran-4-yl)methyl)-1H-benzo[d]imidazol-5-yl)methyl)amino)-3-hydroxybutanoate]
5 |  |  |  |  | 7.5 | Cc1cc(-c2nc3cc(CN[C@H](C(=O)OC(C)C)[C@@H](C)O)ccc3n2CC2CCOCC2)cn(C)c1=O [edisylate salt of Example 303, 1,2-ethanedisulphonic acid salt of (2S,3R)-isopropyl 2-(((2-(1,5-dimethyl-6-oxo-1,6-dihydropyridin-3-yl)-1-((tetrahydro-2H-pyran-4-yl)methyl)-1H-benzo[d]imidazol-5-yl)methyl)amino)-3-hydroxybutanoate]
